Assay results as given in patent US10363239B2, “Method for inhibiting growth of cancer cells” (Pain Therapeutics, Inc., priority 2013, dated 2019).
Read-outs that look alike come from different tables or passages of the source.

Columns and labels:
[1] = biological target: FLNA pentapeptide of SEQ ID NO: 1 (Bn-VAKGL) (Homo sapiens, UniProt P21333); test: FITC-NLX-based FLNA screening assay (inhibition of FITC-naloxone binding to Bn-VAKGL on streptavidin plates); conditions: 10 nM FITC-NLX
[2] = tested on: mu opiate receptor (MOR); test: MOR agonist activity using [35S]GTPγS binding assay in striatal membranes; format: biochemical; conditions: for MOR agonist activity ([35S]GTPγS binding), FLNA-Binding Compound as Agonist 1 μM + BFNA: 1 μM compound + 1 μM β-funaltrexamine
Method in brief: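 Striatal membranes (200 μg) were preincubated 5 min at 30 °C in HEPES pH 7.5 with 100 mM NaCl, 1 mM MgCl2 and 0.5 nM [35S]GTPγS, then 5 min more with 0.1–10 μM compound. Gαo was immunoprecipitated and bound radioactivity counted by scintillation.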

[3] = read-out: Percent Binding Inhibition, FLNA-binding compound 0.01 μM
[4] = read-out: Percent Binding Inhibition, FLNA-binding compound 0.1 μM
[5] = read-out: Percent Binding Inhibition, FLNA-binding compound 1 μM
[6] = Series B, 0.1 μM compound, relative to DAMGO
[7] = Series B, 0.1 μM compound, [35S]GTPγS binding to Gαo, striatal membranes
[8] = Series B, 1 μM compound + 1 μM β-FNA
[9] = Series B, 1 μM compound + β-FNA, relative to DAMGO + BFNA
[10] = Series B, 1 μM compound, relative to DAMGO
[11] = Series B, 1 μM compound, [35S]GTPγS binding to Gαo, striatal membranes
[12] = FLNA-binding compound 0.01 μM, read-out: Percent Binding Inhibition
[13] = FLNA-binding compound 0.1 μM, read-out: Percent Binding Inhibition
[14] = FLNA-binding compound 1 μM, read-out: Percent Binding Inhibition
[15] = Series C-1, 0.1 μM compound, relative to DAMGO
[16] = Series C-1, 0.1 μM compound, [35S]GTPγS binding to Gαo, striatal membranes
[17] = Series C-1, 1 μM compound + 1 μM β-FNA
[18] = Series C-1, 1 μM compound + β-FNA, relative to DAMGO + BFNA
[19] = Series C-1, 1 μM compound, relative to DAMGO
[20] = Series C-1, 1 μM compound, [35S]GTPγS binding to Gαo, striatal membranes
[21] = 0.1 μM compound relative to DAMGO
[22] = 1 μM compound + BFNA relative to DAMGO + BFNA
[23] = 1 μM compound relative to DAMGO

COc1c2c(cc3c1C(CC(=O)Cc1ccccc1C)N(C)CC3)OCO2 (stereo not drawn) [Compound B0053]
inhibition at 0.01 µM [1, 3]: 33.1% | inhibition at 0.1 µM [1, 4]: 37.3% | inhibition at 1 µM [1, 5]: 47.6% | % DAMGO (0.1 μM) [2, 6]: 94.8% | MOR agonist activity, percent [35S]GTPγS binding at the stated compound concentration [2, 7]: 160.2% | MOR agonist activity, percent [35S]GTPγS binding at the stated compound concentration [2, 8]: 134.3% | % DAMGO + BFNA [2, 9]: 809.0% | % DAMGO (1 μM) [2, 10]: 137.0% | MOR agonist activity, percent [35S]GTPγS binding at the stated compound concentration [2, 11]: 299.8%

CC(=O)c1ccc(C(=O)N2CCOC23CCN(S(=O)(=O)c2ccc(C(C)=O)cc2)CC3)cc1 [Compound C0053]
inhibition at 0.01 µM [1, 12]: 28.9% | inhibition at 0.1 µM [1, 13]: 33.8% | inhibition at 1 µM [1, 14]: 39.3% | % DAMGO (0.1 μM) [2, 15]: 71.7% | Concentration of FLNA-Binding Compound as Agonist 0.1 μM [2, 16]: 104.0% | Concentration of FLNA-Binding Compound as Agonist 1 μM + BFNA [2, 17]: 93.1% | % DAMGO + BFNA [2, 18]: 211.6% | % DAMGO (1 μM) [2, 19]: 67.5% | Concentration of FLNA-Binding Compound as Agonist 1 μM [2, 20]: 157.2%

COc1ccc(C(=O)CC2c3c(cc4c(c3OC)OCO4)CC[N+]2(C)C)cc1OC (stereo not drawn) [Compound B0026]
inhibition at 0.01 µM [1, 3]: 41.1% | inhibition at 0.1 µM [1, 4]: 43.3% | inhibition at 1 µM [1, 5]: 48.2% | % DAMGO (0.1 μM) [2, 6]: 88.8% | MOR agonist activity, percent [35S]GTPγS binding at the stated compound concentration [2, 7]: 152.0% | MOR agonist activity, percent [35S]GTPγS binding at the stated compound concentration [2, 8]: 28.8% | % DAMGO + BFNA [2, 9]: 55.3% | % DAMGO (1 μM) [2, 10]: 87.4% | MOR agonist activity, percent [35S]GTPγS binding at the stated compound concentration [2, 11]: 233.3%

COc1c2c(cc3c1C(CC(=O)Cc1ccc(Br)cc1)[N+](C)(C)CC3)OCO2 (stereo not drawn) [Compound B0011]
inhibition at 0.01 µM [1, 3]: 40.9% | inhibition at 0.1 µM [1, 4]: 50.3% | inhibition at 1 µM [1, 5]: 55.8% | % DAMGO (0.1 μM) [2, 6]: 95.7% | MOR agonist activity, percent [35S]GTPγS binding at the stated compound concentration [2, 7]: 158.6% | MOR agonist activity, percent [35S]GTPγS binding at the stated compound concentration [2, 8]: 78.0% | % DAMGO + BFNA [2, 9]: 120.0% | % DAMGO (1 μM) [2, 10]: 78.7% | MOR agonist activity, percent [35S]GTPγS binding at the stated compound concentration [2, 11]: 212.6%

CC1CN(CC(O)COc2ccc(Br)c(Cl)c2)CC(C)O1 (stereo not drawn) [Compound A0045]
inhibition at 0.01 µM [1, 12]: 28.1% | inhibition at 0.1 µM [1, 13]: 35% | inhibition at 1 µM [1, 14]: 37.8% | MOR agonist activity ([35S]GTPγS binding), FLNA-Binding Compound as Agonist 0.1 μM ([2]; 0.1 μM compound): 143.9% | % DAMGO (0.1 μM) [2, 21]: 73.3% | MOR agonist activity ([35S]GTPγS binding), FLNA-Binding Compound as Agonist 1 μM ([2]; 1 μM compound): 274.2% | MOR agonist activity ([35S]GTPγS binding), FLNA-Binding Compound as Agonist 1 μM + BFNA [2]: 99.2% | % DAMGO + BFNA [2, 22]: 134.2% | % DAMGO (1 μM) [2, 23]: 99.3%

CC1CCC(C(C)C)C(OCC(O)CN2CCCN(C)CC2)C1 (stereo not drawn) [Compound A0010]
inhibition at 0.01 µM [1, 12]: 36% | inhibition at 0.1 µM [1, 13]: 36.5% | inhibition at 1 µM [1, 14]: 39% | MOR agonist activity ([35S]GTPγS binding), FLNA-Binding Compound as Agonist 0.1 μM ([2]; 0.1 μM compound): 277.2% | % DAMGO (0.1 μM) [2, 21]: 161.9% | MOR agonist activity ([35S]GTPγS binding), FLNA-Binding Compound as Agonist 1 μM ([2]; 1 μM compound): 319.0% | MOR agonist activity ([35S]GTPγS binding), FLNA-Binding Compound as Agonist 1 μM + BFNA [2]: 190.3% | % DAMGO + BFNA [2, 22]: 365.3% | % DAMGO (1 μM) [2, 23]: 119.5%

O=S(=O)(c1ccc(Oc2ccccc2)cc1)N1CCC2(CC1)OCCN2S(=O)(=O)c1ccc(Oc2ccccc2)cc1 [Compound C0149M]
inhibition at 0.01 µM [1, 3]: 48.5% | inhibition at 0.1 µM [1, 4]: 52.3% | inhibition at 1 µM [1, 5]: 62% | % DAMGO (0.1 μM) [2, 15]: 122.0% | Concentration of FLNA-Binding Compound as Agonist 0.1 μM [2, 16]: 209.8% | Concentration of FLNA-Binding Compound as Agonist 1 μM + BFNA [2, 17]: 93.4% | % DAMGO + BFNA [2, 18]: 102.3% | % DAMGO (1 μM) [2, 19]: 124.8% | Concentration of FLNA-Binding Compound as Agonist 1 μM [2, 20]: 406.7%

COc1ccc(S(=O)(=O)N2CCC3(CC2)OCCN3S(=O)(=O)c2ccc(C(C)=O)cc2)cc1 [Compound C0048]
inhibition at 0.01 µM [1, 3]: 28.5% | inhibition at 0.1 µM [1, 4]: 38.9% | inhibition at 1 µM [1, 5]: 45.9% | % DAMGO (0.1 μM) [2, 15]: 144.2% | Concentration of FLNA-Binding Compound as Agonist 0.1 μM [2, 16]: 209.1% | Concentration of FLNA-Binding Compound as Agonist 1 μM + BFNA [2, 17]: 89.9% | % DAMGO + BFNA [2, 18]: 204.3% | % DAMGO (1 μM) [2, 19]: 105.3% | Concentration of FLNA-Binding Compound as Agonist 1 μM [2, 20]: 245.3%

CCOC(=O)CN1CCC2(CC1)OCCN2S(=O)(=O)c1ccc(C(C)=O)cc1 [Compound C0099M]
inhibition at 0.01 µM [1, 12]: 46.9% | inhibition at 0.1 µM [1, 13]: 53.3% | inhibition at 1 µM [1, 14]: 56% | % DAMGO (0.1 μM) ([2]; Series C-2, 0.1 μM compound, relative to DAMGO): 93.8% | MOR agonist activity, percent [35S]GTPγS binding at the stated compound concentration ([2]; Series C-2, 0.1 μM compound, [35S]GTPγS binding to Gαo, striatal membranes): 157.2% | MOR agonist activity, percent [35S]GTPγS binding at the stated compound concentration ([2]; Series C-2, 1 μM compound + 1 μM β-FNA): 114.7% | % DAMGO + BFNA ([2]; Series C-2, 1 μM compound + β-FNA, relative to DAMGO + BFNA): 241.5% | % DAMGO (1 μM) ([2]; Series C-2, 1 μM compound, relative to DAMGO): 88.0% | MOR agonist activity, percent [35S]GTPγS binding at the stated compound concentration ([2]; Series C-2, 1 μM compound, [35S]GTPγS binding to Gαo, striatal membranes): 195.7%
